This test relates to rabbit aorta muscle strips. The experiment in a line: Bioactivity test: relaxation of norepinephrine-precontracted rabbit aorta muscle strips in organ bath. Type of test: cell-based, New Zealand rabbits. As to conditions: for relaxation activity: Example 6, tested as in Example 5, corresponding concentrations. The procedure:
Muscle strips of rabbit aorta were first contracted by the action of a solution of norepinephrine (10^-7 M). After constant conditions had been adjusted, the peptides were added (position of the arrow).
The muscle relaxation continues only after a further addition of unphosphorylated alpha-nANaP.
Aortae of New Zealand rabbits were prepared. The muscular tension was measured with a muscle strip in an organ bath containing physiological saline. The strips were pre-contracted with a solution of 10^-6 M of norepinephrin, then at fill relaxation. For the assay, a further contraction was induced with 10^-7 M of norepinephrin. After constant contraction conditions had been reached, the peptides were applied.
Alpha-hANaP was phosphorylated according to EXAMPLE 1 in the presence of ATP and the catalytic subunit according to EXAMPLE 1. For control, unphosphorylated alpha-hANaP was incubated under the same conditions, however in the absence of ATP. […] Stepwise addition of unphosphorylated, phosphorylated and in turn unphosphorylated alpha-hANaP allows clearly to recognize that only unphosphorylated alpha-hANaP exerts a significant relaxing effect in comparison to phosphorylated peptide. If the addition is reversed, first phosphorylated, then unphosphorylated and again phosphorylated alpha-hANaP, the corresponding reversed relaxation effect is found.
CDD-32 (Urodilatin) is phosphorylated according to Example 1 and investigated for its biological activity in the same manner as in Example 5.

“Also recorded” adds a separate entry of the source. No end group written: not given here.

In the case of “phosphorylated CDD-28: alpha-hANaP (positions 99-126 of gamma-hANaP) phosphorylated with c-AMP-dependent proteinkinase; formula I with R = H, X = phosphate (SLRRSSCFGGRMDRIGAQSGLGCNSFRY; ends and bridges not checked; also: phosphorylated (phosphate), site not given here; UniProt P01160 124-151, looked up)”, under “FIG. 5, strips contracted with norepinephrine 10^-7 M, peptide final concentration 0.3 to 0.6×10^-9 M”, the “effect onto the smooth vascular musculature (relaxation)” value is “only a slight relaxation”. Moreover, where the note is “FIG. 7 / Example 5, final concentration 0.3×10^-9 M, stepwise addition, listed as phosphorylated alpha-hANaP”, the “muscle relaxation of precontracted rabbit aorta strips” value was “an effect next to nothing; also recorded: negligible effect”. As for Urodilatin [reference compound], the relaxation activity result was “dose-dependant relaxation activity”. For “phosphorylated CDD-32: CDD-32 (urodilatin, amino acids 95-126 of gamma-hANaP) phosphorylated according to Example 1 (TAPRSLRRSSCFGGRMDRIGAQSGLGCNSFRY; ends and bridges not checked; also: phosphorylated (phosphate), site not given here; UniProt P01160 120-151, looked up)”, the relaxation activity result is reported as “distinctly reduced relaxation”. For the same substance, for the setting “FIG. 8, phosphorylated versus unphosphorylated form at corresponding concentration”, the relative relaxation capability result was “significantly lower relaxation capability than that of the unphosphorylated form”.
